Assay results published in ChEMBL document CHEMBL5724558, “Image-based profiling of drug vulnerabilities in CRC organoids” (2024).
Several values for one entry are separate records, joined by “and”; a condition that tells them apart may be missing. Equal entries are not always repeated.

Legend:
Type in all cases: functional, Homo sapiens
Set-up in all cases: dose or concentration left out as unconfirmed
[1] = tested on: Colon cancer organoid; test: Image-based profiling of donated chemical probes and chemogenomic kinase set in O06 CRC organoid. Image analysis is performed on the sum area metric, and the data were normalized to the DMSO control. After imaging the organoid viability is measured using the OneGloEX Luciferase Assay System. The normalized viability data and sum area are reported.
[2] = tested on: Colon cancer organoid; test: Image-based profiling of donated chemical probes and chemogenomic kinase set in O21 CRC organoid. Image analysis is performed on the sum area metric, and the data were normalized to the DMSO control. After imaging the organoid viability is measured using the OneGloEX Luciferase Assay System. The normalized viability data and sum area are reported.
[3] = tested on: Colon cancer organoid; test: Image-based profiling of donated chemical probes and chemogenomic kinase set in O09 CRC organoid. Image analysis is performed on the sum area metric, and the data were normalized to the DMSO control. After imaging the organoid viability is measured using the OneGloEX Luciferase Assay System. The normalized viability data and sum area are reported.

Row | SMILES | Cell Viability ([1]; Replication number 1) | Cell Viability ([1]; Replication number 2) | Cell Viability ([2]; Replication number 1) | Cell Viability ([2]; Replication number 2) | Cell Viability ([3]; Replication number 1) | Cell Viability ([3]; Replication number 2)
1 | C=CC(=O)Nc1cccc(C(=O)Nc2ccc(Nc3cc(-c4[nH]c(SC)nc4C)ccn3)cc2)c1 | 120.545% and 116.4% | 120.557% and 114.139% | 87.1744% and 91.9861% | 133.203% and 116.877% | 195.827% and 119.682% | 254.944% and 117.159%
2 | COCc1nc2cnc3cc(-c4c(C)noc4C)c(OC[C@H]4CCNC4)cc3c2n1[C@H](C)c1ccccc1 [GSK778] | 42.5585% and 78.7045% | 45.6544% and 89.6204% | 115.801% and 111.859% | 99.2147% and 116.757% | 36.9836% and 58.5219% | 32.5027% and 49.1673%
3 | COc1ncc(F)cc1CNc1ccc(Cc2c[nH]c3ncc(C)cc23)c(F)n1 [PLX-5622] | 113.45% and 123.522% | 100.072% and 108.792% | 106.139% and 77.4913% | 117.508% and 96.7254% | 193.371% and 111.454% | 159.434% and 112.03%
4 | CO[C@@H](C)c1c(Nc2ccc([C@@H](N(C)C(=O)C3CCS(=O)(=O)CC3)C(F)(F)F)cc2)cnc2cc(Cl)nn12 [NVS-MALT1-C] | 48.3396% and 100.567% | 78.0608% and 112.446% | 68.6015% and 94.398% | 97.4598% and 109.109% | 63.1352% and 96.7863% | 75.29% and 89.0167%
5 | O[C@H]1CC[C@H](Nc2ncc3nc(Nc4c(F)cc(F)cc4F)n([C@H]4CCOC4)c3n2)CC1 [TANZISERTIB] | 85.5595% and 88.3572% | 111.493% and 110.437% | 99.1681% and 86.9686% | 119.868% and 95.5739% | 161.464% and 97.9897% | 183.086% and 108.79%
6 | CNC(=O)c1cc(C(=O)N[C@H]2[C@@H]3COC[C@@H]32)cc2c1O[C@H](CF)[C@H]2c1ccccc1 [GSK973] | 85.8672% and 112.47% | 108.347% and 115.089% | 110.582% and 117.861% | 99.9706% and 95.8532% | 33.6063% and 74.8406% | 64.0142% and 82.8707%
7 | CCOc1cc(N2CCC(O)CC2)ccc1Nc1ncc2c(n1)N(C)c1ccccc1C(=O)N2C | 105.657% and 158.464% | 54.5485% and 108.792% | 109.771% and 116.516% | 106.608% and 109.968% | 50.6693% and 60.5891% | 44.9186% and 56.4198%
8 | CCOc1cc2ncc(C#N)c(Nc3ccc(OCc4cccc(F)c4)c(Cl)c3)c2cc1NC(=O)/C=C/CN(C)C [HKI-357] | 2.387% and 8.346% | 3.908% and 9.337% | 27.4097% and 41.0314% | 48.8208% and 68.5139% | 14.2588% and 15.3343% | 12.8508% and 14.4694%
9 | CN1CCN(C(=O)C(C)(C)c2ccc(C(=O)Nc3cn4cc(-c5ccncc5)ccc4n3)cc2)CC1 [T3-CLK] | 42.3595% and 97.4239% | 42.5998% and 77.939% | 57.8975% and 103.622% | 54.6627% and 104.082% | 41.227% and 51.6061% | 31.6537% and 31.5444%
10 | CN(C)[C@@H]1CCN(c2cc(-c3ccccc3)nc3ccnn23)C1 [(R)-ZINC-3573] | 99.7285% and 119.514% | 116.173% and 112.206% | 105.256% and 112.95% | 102.245% and 84.1264% | 69.8572% and 93.5976% | 61.7883% and 100.515%
11 | CCn1cc(-c2cccc(C(F)(F)F)c2)c2sc(C(=N)NC3CCS(=O)(=O)CC3)cc2c1=O | 179.562% and 135.302% | 139.17% and 96.3091% | 121.201% and 130.503% | 111.866% and 107.936% | 136.882% and 100.386% | 86.2111% and 86.0944%
12 | O=C(Nc1cccnc1)c1cc(-c2ccnc(F)c2)ccc1OCc1ccccc1 | 114.96% and 114.62% | 124.178% and 97.892% | 112.865% and 104.808% | 105.956% and 96.1497% | 214.708% and 117.189% | 126.13% and 109.87%
13 | FC(F)(F)c1ccc2c(c1)nc(-c1cccnc1)n2C1CC1 [MSD-CYP11B2-Negative-control] | 82.4588% and 96.4372% | 50.7409% and 62.2297% | 89.0845% and 95.4893% | 78.0159% and 105.031% | 82.6005% and 103.914% | 111.8% and 104.679%
14 | O=C(CNCc1cc2ccccc2[nH]1)N[C@H]1CC[C@@H](c2nc3ccccc3[nH]2)CC1 | 105.609% and 101.043% | 76.5637% and 75.4756% | 73.7634% and 95.331% | 89.7869% and 102.483% | 116.461% and 89.5122% | 85.4342% and 106.091%
15 | Nc1nc(NCc2ccccc2)nc(-c2cccc(CO)c2)n1 [ZINC32547799] | 89.5578% and 102.51% | 72.3824% and 71.8405% | 95.0079% and 87.3045% | 101.984% and 101.971% | 98.3992% and 98.4744% | 101.098% and 100.714%
16 | CCS(=O)(=O)c1cc2cc(C[C@](O)(CC(C)(C)c3ccc(F)cc3C(N)=O)C(F)(F)F)[nH]c2cn1 [BI 653048] | 90.5623% and 97.4239% | 82.9692% and 113.237% | 95.8907% and 94.89% | 87.1647% and 83.1633% | 139.667% and 102.973% | 122.797% and 92.0044%
17 | C[C@H](NC(=O)c1cnc2n1[C@](C)(Cc1ccc(C#N)cc1)C(=O)N2c1cc(Cl)c(F)c(Cl)c1)C(=O)NC1(c2ccccn2)CC1 [BI 1950] | 114.343% and 119.672% | 141.649% and 119.396% | 97.6765% and 100.712% | 88.7319% and 89.7959% | 132.005% and 114.441% | 125.066% and 107.777%
18 | C[C@@H]1CC(=O)Nc2cccc(-c3ccc4c(c3)c(-c3cnn(C)c3)nn4C)c2N1 | 59.3391% and 89.8792% | 80.6716% and 83.4041% | 80.8439% and 121.097% | 82.2884% and 110.621% | 75.8759% and 56.1051% | 135.457% and 81.8182%
19 | Cc1cc(-n2nc(Cc3cc(F)cc(C(F)(F)F)c3)nc2C)ccc1C(N)=O [TP-024] | 119.634% and 111.944% | 93.5275% and 86.4673% | 86.6903% and 89.6507% | 83.205% and 88.2653% | 194.223% and 140.244% | 90.9356% and 75.9401%
20 | O=C(N[C@H]1CCCCC/C=C\C2C[C@@]2(C(=O)O)NC(=O)[C@@H]2C[C@@H](Oc3ccncc3)CN2C1=O)OC1CCCC1 (stereo partly specified) [BI 1675] | 69.4015% and 71.6628% | 66.5819% and 62.7776% | 85.4317% and 92.5614% | 88.5187% and 94.3878% | 116.319% and 81.4707% | 190.904% and 132.895%
21 | COc1cc(C)c(Sc2cnc(NC(=O)c3ccc(CNC(C)C(C)(C)C)cc3)s2)cc1C(=O)N1CCN(C(C)=O)CC1 (stereo unspecified) | 76.6912% and 109.056% | 80.9572% and 86.581% | 74.3447% and 68.0139% | 84.4374% and 89.8165% | 101.639% and 97.9897% | 78.5606% and 100.962%
